Results reported in patent EP3046573B1, “AMYLIN ANALOGUES” (Zealand Pharma A/S, priority 2013, dated 2015).
pEC50: −log10 of the molar value. Numbered stars: 1 amine (or outer) side, 2 acyl side, 3 side chain; on linkers, the order of the positions; unused ones are H or OH. Bridge positions count the residues as written; N and C are the ends. Square brackets hold non-standard residues; d marks the D form. Peptide text beside a SMILES is read from it. * marks the point of attachment. C20 diacid = O=C(O)CCCCCCCCCCCCCCCCCCC(=O)*; γGlu = O=C(O)[C@H](CCC(=O)[*:2])N[*:1]; Hyp = O=C(O)[C@@H]1C[C@@H](O)CN1; NMeI = CC[C@H](C)[C@H](NC)C(=O)O; Sar = CNCC(=O)O

Assays:
[1] = target: T1, human amylin receptor 3 (hAMYR3) consisting of hCTR2 co-expressed with human Receptor Activity Modifying Protein 3 (hRAMP3) (Homo sapiens, UniProt O60896+P30988); assay: hAMYR3 assay: induction of cAMP (AlphaScreen cAMP Assay kit) in COS7 cells expressing hAMYR3; format: cell-based; settings: cAMP induction in COS7 cells expressing hAMYR3; average of a minimum of 3 determinations; read-out: hAMY R3 EC50
T1 construct: expressed in transfected cells
T1 sequence (P30988 25-474): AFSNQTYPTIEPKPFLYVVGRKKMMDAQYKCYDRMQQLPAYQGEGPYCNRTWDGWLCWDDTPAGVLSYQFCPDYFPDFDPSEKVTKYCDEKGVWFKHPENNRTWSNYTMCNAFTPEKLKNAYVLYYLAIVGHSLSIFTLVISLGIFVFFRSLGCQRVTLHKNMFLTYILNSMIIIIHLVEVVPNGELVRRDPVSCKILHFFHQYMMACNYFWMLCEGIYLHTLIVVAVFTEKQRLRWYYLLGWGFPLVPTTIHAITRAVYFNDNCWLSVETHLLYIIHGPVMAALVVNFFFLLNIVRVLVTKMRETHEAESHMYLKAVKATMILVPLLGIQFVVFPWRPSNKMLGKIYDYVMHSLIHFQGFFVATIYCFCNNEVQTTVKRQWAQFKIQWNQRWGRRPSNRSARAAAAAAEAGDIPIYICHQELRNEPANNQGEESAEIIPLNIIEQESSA
T1 sequence (O60896 24-148 partner): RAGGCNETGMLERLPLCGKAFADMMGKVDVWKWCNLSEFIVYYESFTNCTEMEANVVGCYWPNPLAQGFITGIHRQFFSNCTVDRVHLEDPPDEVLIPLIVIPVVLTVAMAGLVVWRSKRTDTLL
Outline: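 Stable COS7 clone co-expressing hCTR2 and hRAMP3, stimulated 15 min at 37° C with increasing peptide in Tyrode buffer pH 7.4 with 100 µM IBMX and 0.1% casein. cAMP measured by AlphaScreen after lysis; EC50 and % efficacy versus pramlintide from 4PL fit.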

[2] = Solubility assessment (turbidity absorbance at 325 nm); format: physicochemical; settings: stock 2 mg/ml diluted 1:1, ambient temperature (typically 25°C), n=1; for Solubility, Acetate buffer pH 4: 100 mM acetate buffer pH 4.0; for Solubility, Acetate buffer pH 5: 100 mM acetate buffer pH 5.0; for Solubility, Histidine buffer pH 6: 100 mM histidine buffer pH 6.0; for Solubility, Histidine buffer pH 7: 100 mM histidine buffer pH 7.0; for Solubility, Phosphate buffer pH 6: 100 mM phosphate buffer pH 6.0; for Solubility, Phosphate buffer pH 7: 100 mM phosphate buffer pH 7.0; for Solubility, Phosphate buffer pH 7.5: 100 mM phosphate buffer pH7.5
Outline: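 Peptide stock (2 mg/ml) in water acidified to pH 2.5 with HCl was diluted 1:1 into 100 mM acetate (pH 4.0, 5.0), histidine (pH 6.0, 7.0) or phosphate (pH 6.0, 7.0, 7.5) buffer. A280 and A325 were read at about 25°C, n=1. A325 ≤ 0.02 meant solubility ≥ 1 mg/ml.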

[3] = target: T2, human calcitonin receptor (hCTR2) (Homo sapiens, UniProt P30988); assay: hCTR2 assay: induction of cAMP (AlphaScreen cAMP Assay kit) in COS7 cells expressing hCTR2; format: cell-based; settings: cAMP induction in COS7 cells expressing hCTR2; average of a minimum of 3 determinations; read-out: hCTR2 EC50
T2 construct: expressed in transfected cells
T2 sequence (P30988 25-474): T1 sequence (P30988 25-474)
Outline: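 Stable hCTR2 clone in RAMP-naive COS7 cells; peptides titrated in Tyrode buffer (pH 7.4) with 100 µM IBMX, 0.1% casein, 15 min at 37° C. cAMP read by AlphaScreen after lysis; EC50 and efficacy relative to pramlintide from 4PL fit.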

Row | Structure (SMILES) | pEC50 [1] | Solubility, Acetate buffer pH 4 [2] | Solubility, Acetate buffer pH 5 [2] | Solubility, Histidine buffer pH 6 [2] | Solubility, Histidine buffer pH 7 [2] | Solubility, Phosphate buffer pH 6 [2] | Solubility, Phosphate buffer pH 7 [2] | Solubility, Phosphate buffer pH 7.5 [2] | pEC50 [3]
1 | CC[C@H](C)[C@@H](C(=O)N[C@@H](CC(C)C)C(=O)N[C@@H](CO)C(=O)N[C@@H](CO)C(=O)N[C@H](C(=O)N[C@@H](CCC(=O)O)C(=O)N[C@H](C(=O)NCC(=O)N[C@@H](CO)C(=O)N[C@@H](CCC(=O)O)C(=O)N[C@H](C(=O)N1C[C@H](O)C[C@H]1C(N)=O)[C@@H](C)O)C(C)C)[C@@H](C)O)N(C)C(=O)CN(C)C(=O)[C@H](Cc1ccccc1)NC(=O)[C@H](CO)NC(=O)[C@H](CO)NC(=O)[C@H](CCCNC(=N)N)NC(=O)[C@H](Cc1c[nH]cn1)NC(=O)[C@H](CC(C)C)NC(=O)[C@H](Cc1ccccc1)NC(=O)[C@H](CCC(=O)O)NC(=O)[C@H](C)NC(=O)[C@H](CC(C)C)NC(=O)[C@H](CCCNC(=N)N)NC(=O)[C@H](CCC(=O)O)NC(=O)[C@@H](NC(=O)[C@H](C)NC(=O)[C@@H]1CSSC[C@H](NC(=O)[C@H](Cc2c[nH]c3ccccc23)NC(=O)CC[C@H](NC(=O)CCCCCCCCCCCCCCCCCCC(=O)O)C(=O)O)C(=O)NCC(=O)N[C@@H]([C@@H](C)O)C(=O)N[C@@H](C)C(=O)N[C@@H]([C@@H](C)O)C(=O)N1)[C@@H](C)O [Compound 165, [19CD]-isoGlu-WC()GTATC()ATERLAEFLHRSSF-Gly(Me)-Ile(Me)-LSSTEVGSET-Hyp-NH2] ({C20 diacid-γGlu}-WCGTATCATERLAEFLHRSSF[Sar][NMeI]LSSTEVGSET[Hyp]-NH2; disulfide 2-7) | 9.57 | SS (SS indicates solubility ≥ 1mg/ml) | SS (SS indicates solubility ≥ 1mg/ml) | SS (SS indicates solubility ≥ 1mg/ml) | SS (SS indicates solubility ≥ 1mg/ml) | SS (SS indicates solubility ≥ 1mg/ml) | II (II indicates solubility ≤ 1 mg/ml) | SS (SS indicates solubility ≥ 1mg/ml) | 9.96
2 | CC[C@H](C)[C@@H](C(=O)N[C@@H](CC(C)C)C(=O)N[C@@H](CO)C(=O)N[C@@H](CO)C(=O)N[C@H](C(=O)N[C@@H](CCC(=O)O)C(=O)N[C@H](C(=O)NCC(=O)N[C@@H](CO)C(=O)N[C@@H](CCC(=O)O)C(=O)N[C@H](C(=O)N1C[C@H](O)C[C@H]1C(N)=O)[C@@H](C)O)C(C)C)[C@@H](C)O)N(C)C(=O)CN(C)C(=O)[C@H](Cc1ccccc1)NC(=O)[C@H](CO)NC(=O)[C@H](CO)NC(=O)[C@H](CCCNC(=N)N)NC(=O)[C@H](Cc1c[nH]cn1)NC(=O)[C@H](CC(C)C)NC(=O)[C@H](Cc1ccccc1)NC(=O)[C@H](CCC(=O)O)NC(=O)[C@H](C)NC(=O)[C@H](CC(C)C)NC(=O)[C@H](CCCNC(=N)N)NC(=O)[C@H](CCC(=O)O)NC(=O)[C@@H](NC(=O)[C@H](C)NC(=O)[C@@H]1CSSC[C@H](NC(=O)[C@H](CCCNC(=N)N)NC(=O)CC[C@H](NC(=O)CCCCCCCCCCCCCCCCCCC(=O)O)C(=O)O)C(=O)NCC(=O)N[C@@H]([C@@H](C)O)C(=O)N[C@@H](C)C(=O)N[C@@H]([C@@H](C)O)C(=O)N1)[C@@H](C)O [Compound 167, [19CD]-isoGlu-RC()GTATC()ATERLAEFLHRSSF-Gly(Me)-Ile(Me)-LSSTEVGSET-Hyp-NH2] ({C20 diacid-γGlu}-RCGTATCATERLAEFLHRSSF[Sar][NMeI]LSSTEVGSET[Hyp]-NH2; disulfide 2-7) | 9.96 | SS (SS indicates solubility ≥ 1mg/ml) | SS (SS indicates solubility ≥ 1mg/ml) | SS (SS indicates solubility ≥ 1mg/ml) | SS (SS indicates solubility ≥ 1mg/ml) | SS (SS indicates solubility ≥ 1mg/ml) | SS (SS indicates solubility ≥ 1mg/ml) | SS (SS indicates solubility ≥ 1mg/ml) | 10.11
3 | CC[C@H](C)[C@@H](C(=O)N[C@@H](CC(C)C)C(=O)N[C@@H](CO)C(=O)N[C@@H](CO)C(=O)N[C@H](C(=O)N[C@@H](CCC(=O)O)C(=O)N[C@H](C(=O)NCC(=O)N[C@@H](CO)C(=O)N[C@@H](CCC(=O)O)C(=O)N[C@H](C(=O)N1C[C@H](O)C[C@H]1C(N)=O)[C@@H](C)O)C(C)C)[C@@H](C)O)N(C)C(=O)[C@H](C)NC(=O)CN(C)C(=O)[C@H](Cc1ccccc1)NC(=O)[C@H](CO)NC(=O)[C@H](CO)NC(=O)[C@H](CO)NC(=O)[C@H](CO)NC(=O)[C@H](CCCNC(=N)N)NC(=O)[C@H](Cc1c[nH]cn1)NC(=O)[C@H](CC(C)C)NC(=O)[C@H](Cc1ccccc1)NC(=O)[C@H](CCC(=O)O)NC(=O)[C@H](C)NC(=O)[C@H](CC(C)C)NC(=O)[C@H](CCCNC(=N)N)NC(=O)[C@H](CCC(=O)O)NC(=O)[C@@H](NC(=O)[C@H](C)NC(=O)[C@@H]1CSSC[C@H](NC(=O)[C@H](CCCCN)NC(=O)[C@H](CCCCN)NC(=O)CC[C@H](NC(=O)CCCCCCCCCCCCCCCCCCC(=O)O)C(=O)O)C(=O)N[C@@H](CCC(=O)O)C(=O)N[C@@H]([C@@H](C)O)C(=O)N[C@@H](C)C(=O)N[C@@H]([C@@H](C)O)C(=O)N1)[C@@H](C)O [Compound 168, [19CD]-isoGlu-KKC()ETATC()ATERLAEFLHRSSSSF-Gly(Me)-A-Ile(Me)-LSSTEVGSET-Hyp-NH2] ({C20 diacid-γGlu}-KKCETATCATERLAEFLHRSSSSF[Sar]A[NMeI]LSSTEVGSET[Hyp]-NH2; disulfide 3-8) | 9.15 | SS (SS indicates solubility ≥ 1mg/ml) | II (II indicates solubility ≤ 1 mg/ml) | SS (SS indicates solubility ≥ 1mg/ml) | SS (SS indicates solubility ≥ 1mg/ml) | SS (SS indicates solubility ≥ 1mg/ml) | SS (SS indicates solubility ≥ 1mg/ml) | SS (SS indicates solubility ≥ 1mg/ml) | 9.24
